Experimental data as given in patent US6469033B1, “Use of 1-hydroxy-2-pyridones for the treatment of skin diseases” (Aventis Pharma Deutschland GmbH, priority 1996, dated 2002).
≈ marks a conversion by molar mass, not a printed value. Like-named read-outs stand apart in the source and are kept apart here.

Legend:
[1] = test system: S. aureus, ofloxacin-resistant, OFX^r; test: Agar dilution MIC, aerobic bacteria (Mueller-Hinton agar); type: cell-based, Staphylococcus aureus; settings: 16 strains, number in brackets = strains with that MIC, 24 hours at 37° C.
Method: (§1) Determination of the antibacterial activity of 1-hydroxy-4-methyl-6-cyclohexyl-2(1H)pyridone to skin-pathogenic gram-positive and gram-negative aerobic bacteria.
(§2) The minimal inhibitory concentration (MIC) was determined in an agar dilution test in Mueller-Hinton agar. The active compound was first dissolved in dimethyl sulfoxide at 10% strength and then diluted to twice the amount in each case in equal stages with agar so that in the end effect concentrations between 128 μg/ml and 1 μg/ml were obtained. Overnight cultures of the bacterial strains to be tested were diluted with liquid medium and employed as inoculum. The bacterial suspensions (1×10^5 cfu/ml) were applied to the surface of the active compound-containing agar plates. With the exception of the methicillin-resistant strains of Staphylococcus aureus (MRSA) and Staphylococcus epidermidis (MRSE), the MIC values were read off after 24 hours at 37° C.(MRSA and MRSE: 48 hours at 30° C.).
(§3) The lowest concentration at which growth was no longer to be observed was designated as the MIC.
(§4) Using known methods, the antibiotic-resistant bacteria investigated can be isolated from patients or from hospitals in which antibiotic resistance has been found. The other bacterial species mentioned can be isolated easily by a person skilled in the art on account of their species and generic name or ordered from a strain collection.

Propionibacterium acnes = test: Agar dilution MIC, anaerobic bacteria (Wilkins-Chalgren agar); type: cell-based
Method: as §3
In vitro activity of 1-hydroxy-4-methyl-6-cyclohexyl-2(1H)pyridone against anaerobic bacteria (the testing was carried out in an agar dilution test using Wilkins-Chalgren agar (Oxoid).

Strept. durans = test: Agar dilution MIC, aerobic bacteria (Mueller-Hinton agar); type: cell-based; settings: Enterococcus durans, 24 h, 10 strains; number in brackets = strains with that MIC; 24 hours at 37° C.
Method: as §1, §2, §3, §4

[2] = test system: Staphylococcus epidermidis; test: as above; type: cell-based; settings: 20 strains, 24 hours at 37° C.
Method: as §1, §2, §3, §4

[3] = test system: S. aureus, methicillin-resistant MRSA; test: as above; type: cell-based; settings: Staphylococcus aureus, 19 strains, read after 48 hours at 30° C.
Method: as §1, §2, §3, §4

Streptococcus pyogenes = test: as above; type: cell-based; settings: 20 strains, 24 hours at 37° C.
Method: as §1, §2, §3, §4

Klebsiella pneumoniae = test: as above; type: cell-based; settings: 2 strains, number in brackets = strains with that MIC, 24 hours at 37° C.
Method: as §1, §2, §3, §4

Strept. faecalis = test: as above; type: cell-based; settings: 3 strains, number in brackets = strains with that MIC, 24 hours at 37° C.
Method: as §1, §2, §3, §4

Staphylococcus aureus = test: as above; type: cell-based; settings: 20 strains, read after 24 hours at 37° C.
Method: as §1, §2, §3, §4

[4] = test system: S. epidermidis, ofloxacin-resistant, OFX^r; test: as above; type: cell-based; settings: Staphylococcus epidermidis; 4 strains; 24 hours at 37° C.
Method: as §1, §2, §3, §4

Enterobacter aerogenes = test: as above; type: cell-based; settings: Klebsiella aerogenes; 1 strain; 24 hours at 37° C.
Method: as §1, §2, §3, §4

Strept. faecium = test: as above; type: cell-based; settings: Enterococcus faecium; 1 strain; 24 hours at 37° C.
Method: as §1, §2, §3, §4

[5] = test system: Strept. faecium, vancomycin-resistant, VAN^r; test: as above; type: cell-based; settings: Enterococcus faecium; 1 strain; 24 hours at 37° C.
Method: as §1, §2, §3, §4

Strept. equisimilis = test: as above; type: cell-based; settings: Streptococcus dysgalactiae; 1 strain; 24 hours at 37° C.
Method: as §1, §2, §3, §4

Enterobacter cloacae = test: as above; type: cell-based; settings: 1 strain, 24 hours at 37° C.
Method: as §1, §2, §3, §4

Strept. agalactiae = test: as above; type: cell-based; settings: Streptococcus agalactiae; 9 strains; 24 hours at 37° C.
Method: as §1, §2, §3, §4

[6] = test system: S. epidermidis, methicillin-resistant, MRSE; test: as above; type: cell-based; settings: Staphylococcus epidermidis, 2 strains, 48 hours at 30° C.
Method: as §1, §2, §3, §4

Pseudomonas aeruginosa = test: as above; type: cell-based; settings: 5 strains, 24 hours at 37° C.
Method: as §1, §2, §3, §4

Escherichia coli = test: as above; type: cell-based; settings: 3 strains, 24 hours at 37° C.
Method: as §1, §2, §3, §4

Proteus vulgaris = test: as above; type: cell-based; settings: 3 strains, number in brackets = strains with that MIC, 24 hours at 37° C.
Method: as §1, §2, §3, §4

Propionibacteria = settings: acne patients pretreated with antibiotics; cited from earlier work
[7] = test system: Staphylococcus epidermidis; settings: acne patients pretreated with antibiotics; cited from earlier work
enterococci = settings: isolates from various centers; cited from earlier work

Cc1cc(C2CCCCC2)n(O)c(=O)c1 [1-hydroxy-4-methyl-6-cyclohexyl-2(1H)pyridone]
MIC [1]: 128 µg/mL (≈ 618 µM)
MIC ([1]; Staphylococcus aureus, 24 h, read-out: MIC): 64 µg/mL (≈ 309 µM)
MIC (Propionibacterium acnes; Cutibacterium acnes, DSM20458, Strain DSM 20458, read-out: MIC): 32 µg/mL (≈ 154 µM)
MIC (Propionibacterium acnes; Cutibacterium acnes, Strain 6919, read-out: MIC): 32 µg/mL (≈ 154 µM)
MIC (Propionibacterium acnes; Strain 6922): 32.0 µg/mL (≈ 154 µM)
MIC (Propionibacterium acnes; Strain 15549): 32.0 µg/mL (≈ 154 µM)
MIC (Strept. durans): 64 µg/mL (≈ 309 µM)
MIC [2]: 128 µg/mL (≈ 618 µM)
MIC [3]: 64 µg/mL (≈ 309 µM)
MIC (Streptococcus pyogenes): 64 µg/mL (≈ 309 µM)
MIC (Klebsiella pneumoniae): 128 µg/mL (≈ 618 µM)
MIC (Klebsiella pneumoniae; Klebsiella pneumoniae, 24 h, read-out: MIC): 64 µg/mL (≈ 309 µM)
MIC (Strept. faecalis): 128 µg/mL (≈ 618 µM)
MIC (Strept. faecalis; Enterococcus faecalis, 24 h, read-out: MIC): 64 µg/mL (≈ 309 µM)
MIC (Staphylococcus aureus): 64 µg/mL (≈ 309 µM)
MIC [4]: 64 µg/mL (≈ 309 µM)
MIC (Enterobacter aerogenes): 128 µg/mL (≈ 618 µM)
MIC (Strept. faecium): 128 µg/mL (≈ 618 µM)
MIC [5]: 32 µg/mL (≈ 154 µM)
MIC (Strept. equisimilis): 128 µg/mL (≈ 618 µM)
MIC (Enterobacter cloacae): 128 µg/mL (≈ 618 µM)
MIC (Strept. agalactiae): 128 µg/mL (≈ 618 µM)
MIC [6]: 64 µg/mL (≈ 309 µM)
MIC (Pseudomonas aeruginosa): 128 µg/mL (≈ 618 µM)
MIC (Escherichia coli): 64 µg/mL (≈ 309 µM)
MIC (Proteus vulgaris): 64 µg/mL (≈ 309 µM)
MIC (Proteus vulgaris; Proteus vulgaris, 24 h, read-out: MIC): 32 µg/mL (≈ 154 µM)

CC[C@H]1OC(=O)[C@H](C)[C@@H](O[C@H]2C[C@@](C)(OC)[C@@H](O)[C@H](C)O2)[C@H](C)[C@@H](O[C@@H]2O[C@H](C)C[C@H](N(C)C)[C@H]2O)[C@](C)(O)C[C@@H](C)C(=O)[C@H](C)[C@@H](O)[C@]1(C)O [erythromycin]
resistances found, share of the cases (Propionibacteria): 36%
resistances found, share of the cases [7]: 90%

gentamycin
resistances, share of isolates (enterococci): up to 50%
